According to patent publication US12600725B2 (Memorial Sloan-Kettering Cancer Center, priority 2013, dated 2026):

Key:
[1] = molecular target: Grp94 (Canis lupus familiaris, UniProt P41148); conditions: read-out: Grp94; FP competition, 6 nM Cy3B-GM, 10 nM protein, 4° C. for 24 h
[2] = molecular target: Hsp90α (Homo sapiens, UniProt P07900); test: biochemical; conditions: FP competition, 6 nM Cy3B-GM, 10 nM protein, 4° C. for 24 h

Chain of Grp94 (P41148 with tags, fused parts or gaps DELINS287-327GGGG): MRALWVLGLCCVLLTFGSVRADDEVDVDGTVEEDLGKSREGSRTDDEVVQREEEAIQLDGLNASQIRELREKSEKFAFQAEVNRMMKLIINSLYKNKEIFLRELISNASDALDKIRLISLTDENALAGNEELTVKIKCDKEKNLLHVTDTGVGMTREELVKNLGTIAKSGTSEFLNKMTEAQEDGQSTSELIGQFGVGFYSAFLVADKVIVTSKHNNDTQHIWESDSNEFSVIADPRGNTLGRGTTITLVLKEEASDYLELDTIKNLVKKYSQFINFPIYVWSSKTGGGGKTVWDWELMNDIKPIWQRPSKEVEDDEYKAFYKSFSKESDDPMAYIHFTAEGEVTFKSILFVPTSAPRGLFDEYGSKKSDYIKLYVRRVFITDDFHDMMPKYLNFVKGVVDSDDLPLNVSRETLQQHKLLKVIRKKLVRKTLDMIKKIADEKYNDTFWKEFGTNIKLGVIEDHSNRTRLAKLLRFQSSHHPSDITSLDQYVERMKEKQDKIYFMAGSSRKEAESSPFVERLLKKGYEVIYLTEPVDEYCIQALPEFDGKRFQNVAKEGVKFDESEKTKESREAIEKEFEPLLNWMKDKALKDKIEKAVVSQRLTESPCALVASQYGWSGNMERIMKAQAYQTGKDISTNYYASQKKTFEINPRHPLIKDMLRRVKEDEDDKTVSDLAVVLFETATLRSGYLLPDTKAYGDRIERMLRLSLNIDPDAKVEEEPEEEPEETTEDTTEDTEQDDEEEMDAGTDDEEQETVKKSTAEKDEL

Compound `C#CCCCn1c(Cc2cc(Cl)cc(Cl)c2)nc2c(N)ncnc21` [HJP-V-39, 8-(3,5-Dichlorobenzyl)-9-(pent-4-yn-1-yl)-9H-purin-6-amine] has an IC50 [1] of 500 nM and an IC50 [2] greater than 10000 nM.

With `C#CCCCn1c(Oc2ccc(Cl)cc2Cl)nc2c(N)ncnc21` [HJP-V-45, 8-(2,4-Dichlorophenoxy)-9-(pent-4-yn-1-yl)-9H-purin-6-amine] the IC50 [1] was 500 nM and the IC50 [2] was greater than 10000 nM.

Work on `C#CCCCn1c(Cc2cc(Cl)ccc2Cl)nc2c(N)ncnc21` [HJP-V-54, 8-(2,5-Dichlorobenzyl)-9-(pent-4-yn-1-yl)-9H-purin-6-amine] yielded an IC50 [1] of 750 nM and an IC50 [2] greater than 10000 nM.

Compound `C#CCCCn1c([S+]([O-])c2ccc(Cl)cc2Cl)nc2c(N)ncnc21` (stereo not shown) [HJP-V-62M, 8-((2,4-Dichlorophenyl)sulfinyl)-9-(pent-4-yn-1-yl)-9H-purin-6-amine] has an IC50 [1] of 5400 nM and an IC50 [2] of 24100 nM.

Compound `C#CCCCn1c(S(=O)(=O)c2ccc(Cl)cc2Cl)nc2c(N)ncnc21` [HJP-V-62T, 8-((2,4-Dichlorophenyl)sulfonyl)-9-(pent-4-yn-1-yl)-9H-purin-6-amine] has an IC50 [1] of 4700 nM and an IC50 [2] greater than 25000 nM.

Work on `CC(O)CNCCn1c(Sc2ccc(Cl)cc2Cl)nc2c(N)ncnc21` (stereo not shown) [HJP-V-82, 1-((2-(6-Amino-8-((2,4-dichlorophenyl)thio)-9H-purin-9-yl)ethyl)amino)propan-2-ol] yielded an IC50 [1] of 230 nM and an IC50 [2] of 31300 nM.

`CC(CO)NCCn1c(Sc2ccc(Cl)cc2Cl)nc2c(N)ncnc21` (stereo not shown) [HJP-V-86, 2-((2-(6-Amino-8-((2,4-dichlorophenyl)thio)-9H-purin-9-yl)ethyl)amino)propan-1-ol] was tested, and the IC50 [1] was 210 nM and the IC50 [2] was 7600 nM.

`Nc1ncnc2c1nc(Sc1ccc(Cl)cc1Cl)n2CCc1ccccn1` [HJP-V-93, 8-((2,4-Dichlorophenyl)thio)-9-(2-(pyridin-2-yl)ethyl)-9H-purin-6-amine] gave an IC50 [1] of 1900 nM and an IC50 [2] greater than 50000 nM.

`Nc1ncnc2c1nc(Sc1ccc(Cl)cc1Cl)n2CCc1ccccc1F` [HJP-V-96, 8-((2,4-Dichlorophenyl)thio)-9-(2-fluorophenethyl)-9H-purin-6-amine] showed an IC50 [1] of 1900 nM and an IC50 [2] greater than 50000 nM.

`Nc1ncnc2c1nc(Sc1ccc(Cl)cc1Cl)n2CCc1ccccc1Cl` [HJP-V-97, 9-(2-Chlorophenethyl)-8-((2,4-dichlorophenyl)thio)-9H-purin-6-amine] showed an IC50 [1] of 2200 nM and an IC50 [2] of 186000 nM.

Work on `Nc1ncnc2c1nc(Sc1ccc(Cl)cc1Cl)n2CCc1ccccc1C(F)(F)F` [HJP-V-98, 8-((2,4-Dichlorophenyl)thio)-9-(2-(trifluoromethyl)phenethyl)-9H-purin-6-amine] yielded an IC50 [1] of 710 nM and an IC50 [2] greater than 50000 nM.

In the case of `CC(C)NCCCn1c(Sc2cc(Cl)c(Cl)cc2Cl)nc2c(N)ncnc21` [HJP-V-103-N9, 9-(3-(Isopropylamino)propyl)-8-((2,4,5-trichlorophenyl)thio)-9H-purin-6-amine], the IC50 [1] is reported as 350 nM and the IC50 [2] is reported as 5800 nM.

Work on `C[C@@H](O)CNCCn1c(Sc2ccc(Cl)cc2Cl)nc2c(N)ncnc21` [HJP-V-104, 1(R)-1-((2-(6-Amino-8-((2,4-dichlorophenyl)thio)-9H-purin-9-yl)ethyl)amino)propan-2-ol] yielded an IC50 [1] of 1500 nM and an IC50 [2] of 55800 nM.

`C[C@H](O)CNCCn1c(Sc2ccc(Cl)cc2Cl)nc2c(N)ncnc21` [HJP-V-105, 1(S)-1-((2-(6-Amino-8-((2,4-dichlorophenyl)thio)-9H-purin-9-yl)ethyl)amino)propan-2-ol] showed an IC50 [1] of 350 nM and an IC50 [2] greater than 50000 nM.

Work on `C#CCN(CCO)CCn1c(Sc2ccc(Cl)cc2Cl)nc2c(N)ncnc21` [HJP-V-110, 2-((2-(6-Amino-8-((2,4-dichlorophenyl)thio)-9H-purin-9-yl)ethyl)(prop-2-yn-1-yl)amino)ethanol] yielded an IC50 [1] of 600 nM and an IC50 [2] greater than 50000 nM.

`CCCC(C)n1c(Sc2ccc(Cl)cc2Cl)nc2c(N)ncnc21` (stereo not shown) [HJP-V-114, 8-((2,4-Dichlorophenyl)thio)-9-(pentan-2-yl)-9H-purin-6-amine] gave an IC50 [1] of 2480 nM and an IC50 [2] greater than 50000 nM.

In the case of `Nc1ncnc2c1nc(Sc1ccc(Cl)cc1Cl)n2CCc1cccnc1` [HJP-V-116, 8-((2,4-Dichlorophenyl)thio)-9-(2-(pyridin-3-yl)ethyl)-9H-purin-6-amine], the IC50 [1] is reported as 120 to 300 nM and the IC50 [2] is reported as greater than 50000 nM.

`Nc1ncnc2c1nc(Sc1ccc(Cl)cc1Cl)n2CCc1ccncc1` [HJP-V-118, 8-((2,4-Dichlorophenyl)thio)-9-(2-(pyridin-4-yl)ethyl)-9H-purin-6-amine] showed an IC50 [1] of 1030 nM and an IC50 [2] greater than 50000 nM.

For `CC(O)CNCCCn1c(Sc2cc(Cl)cc(Cl)c2)nc2c(N)ncnc21` (stereo not shown) [HJP-V-130, 1-((3-(6-amino-8-((3,5-dichlorophenyl)thio)-9H-purin-9-yl)propyl)amino)propan-2-ol], the IC50 [1] was 370 nM and the IC50 [2] was 51700 nM.

In the case of `C#CCN(CCO)CCCn1c(Sc2cc(Cl)cc(Cl)c2)nc2c(N)ncnc21` [HJP-V-132, 2-((3-(6-amino-8-((3,5-dichlorophenyl)thio)-9H-purin-9-yl)propyl)(prop-2-yn-1-yl)amino)ethanol], the IC50 [1] is reported as 810 nM and the IC50 [2] is reported as 26600 nM.

In the case of `Nc1ncnc2c1nc(Sc1cc(Cl)cc(Cl)c1)n2CCCN1CC(O)C1` [HJP-V-134, 1-(3-(6-amino-8-((3,5-dichlorophenyl)thio)-9H-purin-9-yl)propyl)azetidin-3-ol], the IC50 [1] is reported as 380 nM and the IC50 [2] is reported as greater than 10000 nM.

For `Nc1ncnc2c1nc(Sc1cc(Cl)cc(Cl)c1)n2CCc1cccnc1` [HJP-V-140, 8-((3,5-dichlorophenyl)thio)-9-(2-(pyridin-3-yl)ethyl)-9H-purin-6-amine], the IC50 [1] was 7900 nM and the IC50 [2] was greater than 50000 nM.

`Nc1ncnc2c1nc(Sc1cc(Cl)cc(I)c1)n2CCc1cccnc1` [HJP-V-147, 8-((3-chloro-5-iodophenyl)thio)-9-(2-(pyridin-3-yl)ethyl)-9H-purin-6-amine] showed an IC50 [1] of 860 nM and an IC50 [2] of 72500 nM.

Work on `COc1ccc(-c2cc(Cl)cc(Sc3nc4c(N)ncnc4n3CCCNC(C)C)c2)cc1` [HJP-VI-3, 8-((5-chloro-4′-methoxy-[1,1′-biphenyl]-3-yl)thio)-9-(3-(isopropylamino)propyl)-9H-purin-6-amine] yielded an IC50 [1] of 2700 nM and an IC50 [2] greater than 25000 nM.

Work on `COc1cccc(-c2cc(Cl)cc(Sc3nc4c(N)ncnc4n3CCCNC(C)C)c2)c1` [HJP-VI-7, 8-((5-chloro-3′-methoxy-[1,1′-biphenyl]-3-yl)thio)-9-(3-(isopropylamino)propyl)-9H-purin-6-amine] yielded an IC50 [1] of 260 nM and an IC50 [2] of 47500 nM.

`CC(C)NCCCn1c(Sc2cc(Cl)cc(-c3cccc([N+](=O)[O-])c3)c2)nc2c(N)ncnc21` [HJP-VI-8, 8-((5-chloro-3′-nitro-[1,1′-biphenyl]-3-yl)thio)-9-(3-(isopropylamino)propyl)-9H-purin-6-amine] gave an IC50 [1] of 580 nM and an IC50 [2] of 47300 nM.

Work on `CC(C)NCCCn1c(Sc2cc(Cl)cc(-c3cccc(C(F)(F)F)c3)c2)nc2c(N)ncnc21` [HJP-VI-9, 8-((5-chloro-3′-(trifluoromethyl)-[1,1′-biphenyl]-3-yl)thio)-9-(3-(isopropylamino)propyl)-9H-purin-6-amine] yielded an IC50 [1] of 260 nM and an IC50 [2] of 13800 nM.

`CC(C)NCCCn1c(Sc2cc(Cl)cc(-c3cccs3)c2)nc2c(N)ncnc21` [HJP-VI-10, 8-((3-chloro-5-(thiophen-2-yl)phenyl)thio)-9-(3-(isopropylamino)propyl)-9H-purin-6-amine] was tested, and the IC50 [1] was 160 nM and the IC50 [2] was 7900 nM.

`CC(C)=C(C)c1cc(Cl)cc(Sc2nc3c(N)ncnc3n2CCCNC(C)C)c1` [HJP-VI-14, 8-((3-chloro-5-(3-methylbut-2-en-2-yl)phenyl)thio)-9-(3-(isopropylamino)propyl)-9H-purin-6-amine] showed an IC50 [1] of 160 nM and an IC50 [2] greater than 50000 nM.

Compound `CC(C)NCCCn1c(Sc2ccc(Cl)cc2F)nc2c(N)ncnc21` [HJP-VI-23, 8-((4-chloro-2-fluorophenyl)thio)-9-(3-(isopropylamino)propyl)-9H-purin-6-amine] has an IC50 [1] of 1500 nM and an IC50 [2] greater than 50000 nM.

`CC(C)NCCCn1c(Sc2cc(Cl)cc(-c3ccco3)c2)nc2c(N)ncnc21` [HJP-VI-30, 8-((3-chloro-5-(furan-2-yl)phenyl)thio)-9-(3-(isopropylamino)propyl)-9H-purin-6-amine] gave an IC50 [1] of 320 nM and an IC50 [2] of 16700 nM.

In the case of `CC(C)NCCCn1c(Sc2ccc(Cl)cc2[N+](=O)[O-])nc2c(N)ncnc21` [HJP-VI-32, 8-((4-chloro-2-nitrophenyl)thio)-9-(3-(isopropylamino)propyl)-9H-purin-6-amine], the IC50 [1] is reported as greater than 5000 nM and the IC50 [2] is reported as 14200 nM.

`Cc1ccc(-c2cc(Cl)cc(Sc3nc4c(N)ncnc4n3CCCNC(C)C)c2)o1` [HJP-VI-38, 8-((3-chloro-5-(5-methylfuran-2-yl)phenyl)thio)-9-(3-(isopropylamino)propyl)-9H-purin-6-amine] showed an IC50 [1] of 750 nM and an IC50 [2] of 25900 nM.

Work on `CC(C)NCCCn1c(Sc2ccc(Cl)cc2-c2ccc[nH]2)nc2c(N)ncnc21` [HJP-VI-42, 8-((4-chloro-2-(1H-pyrrol-2-yl)phenyl)thio)-9-(3-(isopropylamino)propyl)-9H-purin-6-amine] yielded an IC50 [1] of 1100 nM and an IC50 [2] of 66900 nM.

In the case of `CC(C)NCCCn1c(Sc2cc(Cl)cc(-c3cn[nH]c3)c2)nc2c(N)ncnc21` [HJP-VI-46, 8-((3-chloro-5-(1H-pyrazol-4-yl)phenyl)thio)-9-(3-(isopropylamino)propyl)-9H-purin-6-amine], the IC50 [1] is reported as 1900 nM and the IC50 [2] is reported as 15900 nM.

`CC(C)C#Cc1cc(Cl)cc(Sc2nc3c(N)ncnc3n2CCCNC(C)C)c1` [HJP-VI-51, 8-((3-chloro-5-(3-methylbut-1-yn-1-yl)phenyl)thio)-9-(3-(isopropylamino)propyl)-9H-purin-6-amine] showed an IC50 [1] of 1200 nM and an IC50 [2] greater than 50000 nM.

`CC(C)NCCCn1c(Sc2cc(Cl)cc(C#CC3CC3)c2)nc2c(N)ncnc21` [HJP-VI-52, 8-((3-chloro-5-(cyclopropylethynyl)phenyl)thio)-9-(3-(isopropylamino)propyl)-9H-purin-6-amine] gave an IC50 [1] of 180 nM and an IC50 [2] greater than 50000 nM.

`CC(C)NCCCn1c(Sc2cc(Cl)cc(C#CC(C)(C)C)c2)nc2c(N)ncnc21` [HJP-VI-53, 8-((3-chloro-5-(3,3-dimethylbut-1-yn-1-yl)phenyl)thio)-9-(3-(isopropylamino)propyl)-9H-purin-6-amine] showed an IC50 [1] of 630 nM and an IC50 [2] greater than 50000 nM.
